The values below come from patent US10294217B2, “Fluoroindole derivatives as muscarinic M1 receptor positive allosteric modulators” (Suven Life Sciences Limited, priority 2015, dated 2019).

Counter-ions that a name gives are not always drawn. Like-named read-outs stand apart in the source and are kept apart here.

The nature of data set [1]: Rodent brain penetration study. Format: in vivo, Male Wistar rats. Conditions: male, Wistar, rat, oral; 3 mg/kg, p.o.; brain-plasma ratio; read-out: Single dose Rat Brain Penetration (Cb/Cp). The method, then:
WO2015044072A1 patent application discloses indole derivatives as M1 PAM compounds. […] This makes these compounds less ideal for the treatment of CNS disorders.
Rodent Brain Penetration Study
Male Wistar rats (260±40 grams) were used as experimental animals. Three animals were housed in each cage. Animals were given water and food ad libitum throughout the experiment and maintained on a 12 hours light/dark cycle.
Brain penetration was determined in discrete manner in rats. One day prior to dosing day, male Wistar rats were acclimatized and randomly grouped according to their weight. At each time point (0.5, 1 and 2 hours) n=3 animals were used.
The test compounds were suitably preformulated and administered orally at (free base equivalent) 3 mg/kg. Blood samples were removed via cardiac puncture by using isoflurane anesthesia. The animals were sacrificed to collect brain tissue. Plasma was separated and brain samples were homogenized and stored frozen at ˜20° C. until analysis. The concentrations of the test compounds in plasma and brain were determined using LC-MS/MS method.
The test compounds were quantified in plasma and brain homogenate by qualified LC-MS/MS method using suitable extraction technique. The test compounds were quantified in the calibration range of 1-500 ng/mL in plasma and brain homogenate. Study samples were analyzed using calibration samples in the batch and quality control samples spread across the batch.

Data set [2] concerns the target human Muscarinic M1 receptor (Homo sapiens (Human), UniProt P11229). Nature of the data set: Allosteric potency EC50 for muscarinic M1 receptor (CHO cells, pCRE-Luc reporter). Format: cell-based. Conditions: luciferase activity, 4 hours. The procedure:
Determination of Allosteric Potency EC50 Values for Muscarinic M1 Receptor:
A stable CHO cell line expressing recombinant human Muscarinic M1 receptor and pCRE-Luc reporter system was used for cell-based assay. The assay offers a non-radioactive based approach to determine binding of a compound to GPCRs. In this specific assay, the level of intracellular cyclic AMP which is modulated by activation or inhibition of the receptor is measured. The recombinant cells harbor luciferase reporter gene under the control of cAMP response element.
The above cells were grown in 96 well clear bottom white plates in Hams F12 medium containing 10% fetal bovine serum (FBS). Prior to the addition of compounds or standard agonist, cells were serum starved overnight. Increasing concentrations of test compounds were added along with EC20 of acetylcholine in OptiMEM medium to the cells. The incubation was continued at 37° C. in CO2 incubator for 4 hours. Medium was removed and cells were washed with phosphate buffered saline. The cells were lysed and luciferase activity was measured in a Luminometer. Luminescence units were plotted against the compound concentrations using Graphpad software. EC50 values of the compounds were defined as the concentration required in stimulating the luciferase activity by 50% in presence of EC20 of acetylcholine and the results are provided in table 1.

Data set [3] is described as follows: Protein binding assay (HT dialysis), dog matrices. The data set is classed as in vitro ADME. Conditions: Mean ± SEM. The procedure: (§1) Unbound fractions of new chemical entities in plasma, brain homogenate and liver microsomes were determined using high-throughput dialysis (HT dialysis). Briefly, dialysis membranes were soaked in deionized water for 20 minutes and then in deionized water with 30% ethanol for 15 minutes and finally in phosphate buffer until use. Membranes were rinsed in phosphate buffer before assembling. The membranes were layered between teflon bars of dialysis assembly. Stock solutions of test compounds were prepared at 10 mM in DMSO, diluted to 1 mM in acetonitrile and further diluted to 100 μM in mixture of water and acetonitrile (1:1 v/v). Human plasma (pool of 3) was prepared from human blood (3 donors) by centrifuging at 4000 rpm for 10 min at 4° C. Rat and dog blood were obtained on the day of the study and centrifuged to obtain plasma. Rat brains were isolated, cleaned and homogenized with 2 volumes of buffer (3 fold dilution). Liver microsomes were prepared at 0.5 mg/mL in phosphate buffer (100 mM, pH 7.4). The dialysate chambers were loaded with 150 μL of 100 mM phosphate buffer (pH 7.4) in triplicates. The matrix chambers were loaded with 150 μL of the plasma or brain homogenate or microsomal suspension spiked with test compounds at a final concentration of 1 μM. 50 μL of the sample was removed from both the chambers at 0 h. The plate was sealed and incubated at 37° C. for 6 h at 100 rpm. After 6 h, 50 μL of the sample was removed from both the chambers. Equal volumes of buffer or human plasma/microsomal suspension were added to the plasma/microsomal and buffer samples respectively to create identical sample matrices for analysis. The samples were precipitated with 150 μL of acetonitrile containing fluoxetine as an internal standard. All the samples were centrifuged at 10000 rpm for 10 minutes at 4° C.

A short description of data set [4]: Protein binding assay (HT dialysis), rat matrices. Format: in vitro ADME. Conditions: Mean ± SEM. The method, then:
as §1

A short description of data set [5]: Protein binding assay (HT dialysis), human matrices. The data set is classed as in vitro ADME. Conditions: Mean ± SEM. The procedure:
as §1

Data set [6] has as its system Male Wistar rats. Description: Object recognition task model. The data set is classed as in vivo. Conditions: 3 mg/kg, p.o. The procedure:
Object Recognition Task Model
The cognition enhancing properties of compounds of this invention were estimated by using this model.
Male Wistar rats (8-10 weeks old) were used as experimental animals. Four animals were housed in each cage. Animals were kept on 20% food deprivation from a day prior to experimentation. Water was provided ad libitum throughout the experiment. Animals were maintained on a 12 hours light/dark cycle in temperature and humidity controlled room. The experiment was carried out in an open field made up of acrylic. Rats were habituated to individual arenas (open field) for 1 hour in the absence of any objects on day 1.
One group of 12 rats received vehicle and another set of animals received compound of the formula (I), before the familiar (T1) and choice (T2) trials. During the familiarization phase, (T1), the rats were placed individually in the arena for 3 minutes, in which two identical objects (a1 and a2) were positioned 10 cm from the wall. 24 hours after T1, trial for long-term memory test was performed. The same rats were placed in the same arena as they were placed in T1 trial. During the choice phase (T2) rats were allowed to explore the arena for 3 minutes in presence of a copy of familiar object (a3) and one novel object (b). During the T1 and T2 trial, explorations of each object (defined as sniffing, licking, chewing or having moving vibrissae whilst directing the nose towards the object at a distance of less than 1 cm) were recorded using stopwatch. • T1 is the total time spent exploring the familiar objects (a1+a2). • T2 is the total time spent exploring the familiar object and novel object (a3+b). • Discriminative index=Time spent with novel object/(time spent with novel and familiar object).
The object recognition test was performed as described by Behavioural Brain Research, 1988, 31, 47-59 and the results are provided in table 5.

Data set [7] is described as follows: Rodent pharmacokinetic study. The data set is classed as in vivo, Male Wistar rats. To be noted: male, Wistar. The procedure:
Rodent Pharmacokinetic Study
Male Wistar rats (260±50 grams) were used as experimental animals. Animals were housed individually in polypropylene cage. Two days prior to study, male Wistar rats were anesthetized with isoflurane for surgical placement of jugular vein catheter. Rats were randomly divided for oral (3 mg/kg) and intravenous (i.v.) (1 mg/kg) dosing (n=3/group) and fasted overnight before oral dosing (p.o.). However, rats allocated to intravenous dosing food and water was provided ad libitum.
At pre-determined point, blood was collected through jugular vein and replenished with an equivalent volume of normal saline. Collected blood was transferred into a labeled eppendorf tube containing 10 μL of heparin as an anticoagulant. Typically blood samples were collected at following time points: 0.08, 0.25, 0.5, 1, 2, 4, 6, 8, and 24 hours post dose. Blood was centrifuged at 4000 rpm for 10 minutes. Plasma was separated and stored frozen at −80° C. until analysis. The concentrations of the test compounds were quantified in plasma by qualified LC-MS/MS method using suitable extraction technique. The test compounds were quantified in the calibration range around 1-1000 ng/mL in plasma. Study samples were analyzed using calibration samples in the batch and quality control samples spread across the batch.
Pharmacokinetic parameters Cmax, AUCt, T1/2, Clearance, and Bioavailability (% F) were calculated by non-compartmental model using standard non-compartmental model by using Phoenix WinNonlin 6.0.2 or 6.0.3 version Software package and the results are tabulated in table 3.

For data set [8] the following is noted: cited from earlier work.
[9] abbreviates: hM1 PAM EC50, in presence of EC20 of acetylcholine.
Setting [10] is: mean ± S.E.M, choice trial 24 hours after T1.
Where [11] appears, read: in presence of EC20 of acetylcholine, read-out: hM1 PAM EC50.

In the case of `O=C(N[C@H]1CCNC[C@H]1F)c1cn(Cc2ccc(F)cc2)c2cccc(F)c12` (single isomer, unassigned; isomer-i) [Example 30, cis-N-(3-Fluoropiperidin-4-yl)-1-(4-fluorobenzyl)-4-fluoro-1H-indole-3-carboxamide hydrochloride (Isomer-I)], the Kp in data set [1] stood at 1.05 ± 0.53. In data set [2] (setting [9]), the EC50 is 1.08 µM.

Turning to `COc1cccc(Cn2cc(C(=O)N[C@H]3CCNC[C@H]3F)c3c(F)cccc32)c1` (single isomer, unassigned; isomer-i) [Example 35, cis-N-(3-Fluoropiperidin-4-yl)-4-fluoro-1-(3-methoxybenzyl)-1H-indole-3-carboxamide hydrochloride (Isomer-I)], the Kp in data set [1] came out at 0.72 ± 0.03. Besides, the EC50 in data set [2] (setting [9]) is 1.48 µM.

On to `COc1ccc(Cn2cc(C(=O)N[C@H]3CCNC[C@H]3F)c3c(F)cccc32)cc1` (single isomer, unassigned; isomer-i) [Example 38, cis-N-(3-Fluoropiperidin-4-yl)-1-(4-methoxybenzyl)-4-fluoro-1H-indole-3-carboxamide hydrochloride (Isomer-I)], for which the Kp in data set [1] is 1.03 ± 0.17. In addition, the EC50 in data set [2] (setting [9]) amounted to 1.45 µM.

Regarding `O=C(N[C@H]1CCCC[C@@H]1O)c1cn(Cc2ccnc(Cl)c2)c2c(F)ccc(F)c12` [Example 6, N-[(1S,2S)-2-Hydroxycyclohexyl]-1-(2-Chloropyridin-4-ylmethyl)-4,7-difluoro-1H-indole-3-carboxamide], the fraction unbound at 6 h, 1 μM was determined as 0.713 ± 0.041 in data set [3] (pH 7.4, Dog liver microsomes 0.5 mg/mL, n = 3, read-out: Fu Microsomes); 0.043 ± 0.002 in data set [3] (pH 7.4, Dog plasma, 37° C., n = 3, read-out: Fu Plasma); 0.014 ± 0.001 in data set [4] (pH 7.4, Rat brain homogenate, 37° C., n = 3, read-out: Fu Brain); 0.56 ± 0.048 in data set [4] (pH 7.4, Rat liver microsomes 0.5 mg/mL, n = 3, read-out: Fu Microsomes); 0.05 ± 0.008 in data set [4] (pH 7.4, Rat plasma, 37° C., n = 3, read-out: Fu Plasma); 0.546 ± 0.018 in data set [5] (pH 7.4, Human liver microsomes 0.5 mg/mL, n = 3, read-out: Fu Microsomes). For the same compound, in data set [5] (pH 7.4, Human plasma, 37° C., n = 3, read-out: Fu Plasma), the fraction unbound at 6 h, 1 μM worked out at 0.03 ± 0.003. In addition, the Kp in data set [1] was 2.09 ± 0.46. In data set [6], the Inference result is on record as “Active”. Also, the “Exploration time Familiar object” value in data set [6] (setting [10]) was 15.75 ± 1.71 s. Further, the “Exploration time Novel object” value in data set [6] (setting [10]) came to 23.67 ± 2.62 s. Further, the EC50 in data set [2] (setting [11]) was determined as 0.122 µM.

With `O=C(N[C@H]1CCCC[C@@H]1O)c1cn(Cc2ccncc2F)c2c(F)ccc(F)c12` [Example 10, N-[(1S,2S)-2-Hydroxycyclohexyl]-1-(5-fluoropyridin-4-ylmethyl)-4,7-difluoro-1H-indole-3-carboxamide], the Kp in data set [1] was determined as 2.4 ± 0.3. Further, the EC50 in data set [2] (setting [11]) stood at 0.94 µM.

Regarding `O=C(N[C@H]1CCCC[C@@H]1O)c1cn(Cc2cc(F)ncc2F)c2cccc(F)c12` [Example 11, N-[(1S,2S)-2-Hydroxycyclohexyl]-1-(2,5-difluoropyridin-4-ylmethyl)-4-fluoro-1H-indole-3-carboxamide], in data set [1], the Kp turned out to be 1.59 ± 0.35. In addition, the EC50 in data set [2] (setting [11]) came to 1.53 µM.

For the compound `O=C(N[C@H]1CCCC[C@@H]1O)c1cn(Cc2cc(F)ncc2F)c2c(F)ccc(F)c12` [Example 12, N-[(1S,2S)-2-Hydroxycyclohexyl]-1-(2,5-difluoropyridin-4-ylmethyl)-4,7-difluoro-1H-indole-3-carboxamide], the Kp in data set [1] was found to be 1.64 ± 0.12. In data set [7] (iv, 1 mg/kg, rat plasma), the AUC(0-t) came out at 0.609 ± 0.062 µg·h/mL and the half-life was 1.6 ± 0.5 h. Further, in data set [7] (plasma, iv, 1 mg/kg, rat), the clearance turned out to be 1.6 ± 0.204 L/h/kg. The bioavailability in data set [7] (plasma, oral 3 mg/kg vs i.v. 1 mg/kg, rat, read-out: % F (Bioavailability)) was 62 ± 6%. Moreover, in data set [7] (oral, 3 mg/kg, rat plasma), the AUC(0-t) was determined as 1.14 ± 0.114 µg·h/mL, the Cmax was 0.337 ± 0.141 µg/mL and the half-life is 3 ± 3 h. Moreover, in data set [2] (setting [11]), the EC50 stood at 0.432 µM.

In the case of `O=C(N[C@H]1CCCC[C@@H]1O)c1cn(Cc2cnn(CCF)c2)c2cccc(F)c12` [Example 19, N-[(1S,2S)-2-Hydroxycyclohexyl]-1-(1-(2-fluoroethyl)-1H-pyrazol-4-ylmethyl)-4-fluoro-1H-indole-3-carboxamide], the EC50 in data set [2] (setting [11]) came to 0.744 µM.

Take `CCCCCCOc1nsnc1C1=CCCN(C)C1` [Xanomeline]: in data set [8] (clinical Alzheimer's disease (AD) trial), the effects on cognition result is given as “significant effects on cognition”. In addition, in data set [8] (clinical trials), the gastrointestinal side effects result is “gastrointestinal side effects led to a high dropout rate”.
